According to patent publication US6737383B1, “Herbicidal oxadiazolidines” (priority 1999, dated 2004):

Experiments:
bedstraw = assay: Test B pre/postemergence bedstraw; type: in vivo, Galium aparine
How it was run: (§1)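 Test chemicals in a non-phytotoxic solvent mixture with surfactant were sprayed preemergence onto planted seeds and postemergence onto plants 2 to 18 cm tall (1- to 4-leaf stage). After twelve to sixteen days in a greenhouse, injury was visually rated against untreated controls from 0 (no effect) to 10 (complete control).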

blackgrass = assay: Test B pre/postemergence blackgrass; type: in vivo, Alopecurus myosuroides
How it was run: as §1

surinam grass = assay: Test B pre/postemergence surinam grass; type: in vivo, Brachiaria decumbens
How it was run: as §1

cocklebur = assay: Test B pre/postemergence cocklebur; type: in vivo, Xanthium strumarium
How it was run: as §1

corn = assay: Test B pre/postemergence corn; type: in vivo, Zea mays
How it was run: as §1

crabgrass = assay: Test B pre/postemergence crabgrass; type: in vivo, Digitaria sanguinalis
How it was run: as §1

giant foxtail = assay: Test B pre/postemergence giant foxtail; type: in vivo, Setaria faberii
How it was run: as §1

morningglory = assay: Test B pre/postemergence morningglory; type: in vivo, Ipomoea hederacea
How it was run: as §1

pigweed = assay: Test B pre/postemergence pigweed; type: in vivo, Amaranthus retroflexus
How it was run: as §1

rape = assay: Test B pre/postemergence rape; type: in vivo, Brassica napus
How it was run: as §1

soybean = assay: Test B pre/postemergence soybean; type: in vivo, Glycine max
How it was run: as §1

sugar beet = assay: Test B pre/postemergence sugar beet; type: in vivo, Beta vulgaris
How it was run: as §1

velvetleaf = assay: Test B pre/postemergence velvetleaf; type: in vivo, Abutilon theophrasti
How it was run: as §1

wheat = assay: Test B pre/postemergence wheat; type: in vivo, Triticum aestivum
How it was run: as §1

wild oat = assay: Test B pre/postemergence wild oat; type: in vivo, Avena fatua
How it was run: as §1

purple nutsedge = assay: Test B pre/postemergence purple nutsedge; type: in vivo, Cyperus rotundus; settings: Postemergence
How it was run: as §1

rice = assay: Test B flood test rice; type: in vivo, Oryza sativa
How it was run: (§2)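 Read-out is a visual response score from 0 (no effect) to 10 (complete control), assigned by comparison with untreated controls. Treatment was applied at the 2-leaf stage, and plants stayed in the greenhouse for twelve to sixteen days before scoring.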

smallflower flatsedge = assay: Test B flood test smallflower flatsedge; type: in vivo, Cyperus difformis
How it was run: as §2

duck salad = assay: Test B flood test duck salad; type: in vivo, Heteranthera limosa
How it was run: as §2

bamyardgrass = assay: Test B flood test barnyardgrass; type: in vivo, Echinochloa crus-galli
How it was run: as §2

[1] = Preemergence, Rate 62 g/ha, scale of 0 to 10 where 0 is no effect and 10 is complete control
[2] = Preemergence, Rate 250 g/ha, scale of 0 to 10 where 0 is no effect and 10 is complete control
[3] = Preemergence, Rate 500 g/ha, scale of 0 to 10 where 0 is no effect and 10 is complete control
[4] = Rate 62 g/ha, Postemergence, scale of 0 to 10 where 0 is no effect and 10 is complete control
[5] = Rate 125 g/ha, Postemergence, scale 0 to 10
[6] = Rate 125 g/ha, Preemergence, scale of 0 to 10 where 0 is no effect and 10 is complete control
[7] = Rate 500 g/ha, Postemergence, scale 0 to 10, 0 no effect, 10 complete control
[8] = Rate 62 g/ha, headed Pre-emergence (flood test species), scale 0 to 10 (0 no effect, 10 complete control)
[9] = Rate 125 g/ha, Pre-emergence, flood test species, scale 0 to 10 where 0 is no effect and 10 is complete control
[10] = Rate 250 g/ha, Pre-emergence, flood-test species, scale 0 to 10, 0 is no effect, 10 is complete control
[11] = Rate 500 g/ha, Pre-emergence, flood test species, scale 0 to 10 (0 no effect, 10 complete control)

For `CC(C)N(C(=O)n1oc(=O)n(CCC2OCCCO2)c1=O)c1ccc(F)cc1` [Compound 255], the “Bedstraw plant response rating” value (bedstraw; [1]) was 0, the “Bedstraw plant response rating” value (bedstraw; [2]) was 0 and the “Plant response rating, Bedstraw” value (bedstraw; [3]) was 0. The “Bedstraw plant response rating” value (bedstraw; [4]) was 0, the “Bedstraw plant response rating” value (bedstraw; [5]) was 0 and the “Bedstraw plant response rating” value (bedstraw; [6]) was 0. The “Plant response rating (0 to 10; 0 is no effect, 10 is complete control), Bedstraw” value (bedstraw; Rate 250 g/ha, Postemergence) was 2, the “Bedstraw plant response rating” value (bedstraw; [7]) was 8 and the “Blackgrass plant response rating” value (blackgrass; [1]) was 10. The “Blackgrass plant response rating” value (blackgrass; [2]) was 10, the “Plant response rating, Blackgrass” value (blackgrass; [3]) was 10 and the “Blackgrass plant response rating” value (blackgrass; [4]) was 0. For the same compound, the “Blackgrass plant response rating” value (blackgrass; [5]) was 2, the “Blackgrass plant response rating” value (blackgrass; [6]) was 10 and the “Plant response rating (0 to 10; 0 is no effect, 10 is complete control), Blackgrass” value (blackgrass; Rate 250 g/ha, Postemergence) was 7. For the same compound, the “Blackgrass plant response rating” value (blackgrass; [7]) was 9, the “B. signalgrass plant response rating” value (surinam grass; [1]) was 0 and the “B. signalgrass plant response rating” value (surinam grass; [2]) was 3. For the same compound, the “Plant response rating, B. signalgrass” value (surinam grass; [3]) was 9, the “B. signalgrass plant response rating” value (surinam grass; [4]) was 0 and the “B. signalgrass plant response rating” value (surinam grass; Rate 125 g/ha, Postemergence, scale 0 (no effect) to 10 (complete control)) was 0. The “B. signalgrass plant response rating” value (surinam grass; [6]) was 2, the “Plant response rating (0 to 10; 0 is no effect, 10 is complete control), B. signalgrass” value (surinam grass; Rate 250 g/ha, Postemergence) was 2 and the “B. signalgrass plant response rating” value (surinam grass; [7]) was 8. The “Cocklebur plant response rating” value (cocklebur; [1]) was 0, the “Cocklebur plant response rating” value (cocklebur; [2]) was 0 and the “Plant response rating, Cocklebur” value (cocklebur; [3]) was 0. For the same compound, the “Cocklebur plant response rating” value (cocklebur; [4]) was 0, the “Cocklebur plant response rating” value (cocklebur; [5]) was 0 and the “Cocklebur plant response rating” value (cocklebur; [6]) was 0. The “Plant response rating (0 to 10; 0 is no effect, 10 is complete control), Cocklebur” value (cocklebur; Rate 250 g/ha, Postemergence) was 0, the “Cocklebur plant response rating” value (cocklebur; [7]) was 2 and the “Corn plant response rating” value (corn; [1]) was 0. For the same compound, the “Corn plant response rating” value (corn; [2]) was 0, the “Plant response rating, Corn” value (corn; [3]) was 8 and the “Corn plant response rating” value (corn; [4]) was 0. The “Corn plant response rating” value (corn; [5]) was 0, the “Corn plant response rating” value (corn; [6]) was 0 and the “Plant response rating (0 to 10; 0 is no effect, 10 is complete control), Corn” value (corn; Rate 250 g/ha, Postemergence) was 0. The “Corn plant response rating” value (corn; [7]) was 6, the “Crabgrass plant response rating” value (crabgrass; [1]) was 0 and the “Crabgrass plant response rating” value (crabgrass; [2]) was 7. The “Plant response rating, Crabgrass” value (crabgrass; [3]) was 9, the “Crabgrass plant response rating” value (crabgrass; [6]) was 3 and the “Plant response rating (0 to 10; 0 is no effect, 10 is complete control), Crabgrass” value (crabgrass; Rate 250 g/ha, Postemergence) was 2. The “Crabgrass plant response rating” value (crabgrass; [7]) was 3, the “Giant foxtail plant response rating” value (giant foxtail; [1]) was 8 and the “Giant foxtail plant response rating” value (giant foxtail; [2]) was 10. For the same compound, the “Plant response rating, Giant foxtail” value (giant foxtail; [3]) was 10, the “Giant foxtail plant response rating” value (giant foxtail; [6]) was 9 and the “Plant response rating (0 to 10; 0 is no effect, 10 is complete control), Giant foxtail” value (giant foxtail; Rate 250 g/ha, Postemergence) was 6. The “Giant foxtail plant response rating” value (giant foxtail; [7]) was 8, the “Morningglory plant response rating” value (morningglory; [1]) was 0 and the “Morningglory plant response rating” value (morningglory; [2]) was 0. The “Plant response rating, Morningglory” value (morningglory; [3]) was 0, the “Morningglory plant response rating” value (morningglory; [6]) was 0 and the “Plant response rating (0 to 10; 0 is no effect, 10 is complete control), Morningglory” value (morningglory; Rate 250 g/ha, Postemergence) was 8. The “Morningglory plant response rating” value (morningglory; [7]) was 8, the “Redroot pigweed plant response rating” value (pigweed; [1]) was 0 and the “Redroot pigweed plant response rating” value (pigweed; [2]) was 5. The “Plant response rating, Redroot pigweed” value (pigweed; [3]) was 10, the “Redroot pigweed plant response rating” value (pigweed; [6]) was 2 and the “Plant response rating (0 to 10; 0 is no effect, 10 is complete control), Redroot pigweed” value (pigweed; Rate 250 g/ha, Postemergence) was 2. For the same compound, the “Redroot pigweed plant response rating” value (pigweed; [7]) was 8, the “Rape plant response rating” value (rape; [1]) was 0 and the “Rape plant response rating” value (rape; [2]) was 0. The “Plant response rating, Rape” value (rape; [3]) was 5, the “Rape plant response rating” value (rape; [6]) was 0 and the “Plant response rating (0 to 10; 0 is no effect, 10 is complete control), Rape” value (rape; Rate 250 g/ha, Postemergence) was 3. The “Rape plant response rating” value (rape; [7]) was 3, the “Soybean plant response rating” value (soybean; [1]) was 0 and the “Soybean plant response rating” value (soybean; [2]) was 0. The “Plant response rating, Soybean” value (soybean; [3]) was 0, the “Soybean plant response rating” value (soybean; [6]) was 0 and the “Soybean plant response rating” value (soybean; [7]) was 6. The “Sugarbeets plant response rating” value (sugar beet; [1]) was 0, the “Sugarbeets plant response rating” value (sugar beet; [2]) was 6 and the “Plant response rating, Sugarbeets” value (sugar beet; [3]) was 7. The “Sugarbeets plant response rating” value (sugar beet; [6]) was 3, the “Sugarbeets plant response rating” value (sugar beet; [7]) was 3 and the “Velvetleaf plant response rating” value (velvetleaf; [1]) was 0. For the same compound, the “Velvetleaf plant response rating” value (velvetleaf; [2]) was 5, the “Plant response rating, Velvetleaf” value (velvetleaf; [3]) was 7 and the “Velvetleaf plant response rating” value (velvetleaf; [6]) was 0. For the same compound, the “Velvetleaf plant response rating” value (velvetleaf; [7]) was 1, the “Wheat plant response rating” value (wheat; [1]) was 0 and the “Wheat plant response rating” value (wheat; [2]) was 4. For the same compound, the “Plant response rating, Wheat” value (wheat; [3]) was 8, the “Wheat plant response rating” value (wheat; [6]) was 0 and the “Wheat plant response rating” value (wheat; [7]) was 8. The “Wild oats plant response rating” value (wild oat; [1]) was 0, the “Wild oats plant response rating” value (wild oat; [2]) was 5 and the “Plant response rating, Wild oats” value (wild oat; [3]) was 10. For the same compound, the “Wild oats plant response rating” value (wild oat; [6]) was 2, the “Wild oats plant response rating” value (wild oat; [7]) was 4 and the “Plant response rating (0 to 10; 0 is no effect, 10 is complete control), Nutsedge” value (purple nutsedge; Rate 250 g/ha) was 0. For the same compound, the “Nutsedge plant response rating” value (purple nutsedge; Rate 500 g/ha, scale 0 to 10, 0 no effect, 10 complete control) was 6, the “Rice plant response rating” value (rice; [8]) was 0 and the “Rice plant response rating” value (rice; [9]) was 0. For the same compound, the “Rice plant response rating” value (rice; [10]) was 0, the “Rice plant response rating” value (rice; [11]) was 0 and the “S. Flatsedge plant response rating” value (smallflower flatsedge; [8]) was 0. The “S. Flatsedge plant response rating” value (smallflower flatsedge; [9]) was 0, the “S. Flatsedge plant response rating” value (smallflower flatsedge; [10]) was 0 and the “S. Flatsedge plant response rating” value (smallflower flatsedge; [11]) was 0. The “Ducksalad plant response rating” value (duck salad; [8]) was 0, the “Ducksalad plant response rating” value (duck salad; [9]) was 0 and the “Ducksalad plant response rating” value (duck salad; [10]) was 0. The “Ducksalad plant response rating” value (duck salad; [11]) was 0, the “Barnyardgrass plant response rating” value (bamyardgrass; [8]) was 0 and the “Barnyardgrass plant response rating” value (bamyardgrass; [9]) was 0. The “Barnyardgrass plant response rating” value (bamyardgrass; [10]) was 0 and the “Barnyardgrass plant response rating” value (bamyardgrass; [11]) was 0.
